Target: T1, human PF4 (Homo sapiens, UniProt P02776)
T1 construct: PF4 is a 70 amino acid, lysine-rich 7.8 kDa platelet-specific protein; made in house; host or cells: Escherichia coli BL21DE3 pLysS (pT7-7) and/or Drosophila S2 cells
T1 sequence (P02776 32-101): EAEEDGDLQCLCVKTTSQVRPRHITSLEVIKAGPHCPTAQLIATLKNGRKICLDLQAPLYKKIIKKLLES
Experiment: Inhibition of PF4 tetramer formation (BS3 cross-linking, SDS-PAGE)
Format: biochemical
Details: for inhibition at 1 µM: 1 μM inhibitor; for inhibition at 1 µM / inhibition at 3 µM: read-out: % inhibition of PF4 tetramer formation at single concentration of inhibitor; for inhibition at 3 µM: 3 μM inhibitor (column A); for IC50: read-out: IC50 of PF4 tetramer formation inhibition
Method in brief: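 Monomer, dimer, trimer and tetramer fractions were quantified by densitometry after reducing 12% SDS-PAGE of BS3-cross-linked (0.2 mM, 30 min, room temperature) PF4. Before cross-linking, 10 μg/ml E. coli-expressed human WT PF4 in PBS was exposed to compound for 15 min at 37° C or 60 min at room temperature; controls lacked compound.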

| SMILES | inhibition at 1 µM [%] | IC50 [nM] | inhibition at 3 µM [%] |
| --- | --- | --- | --- |
| O=C1c2ccc(S(=O)(=O)c3ccc4c(c3)C(=O)C(C(=O)C3CCCS3(=O)=O)C4=O)cc2C(=O)C1C(=O)C1CCCS1(=O)=O (centres unmarked) [Example 372, 2-(5-{[2-(1,1-dioxo-1λ^6-thiolane-2-carbonyl)-1,3-dioxo-2,3-dihydro-1H-inden-5-yl]sulfonyl}-1,3-dioxo-2,3-dihydro-1H-indene-2-carbonyl)-1λ^6-thiolane-1,1-dione] |  |  | 30 |
| CC(C)(C)OC(=O)N1CC[C@H](C(=O)C2C(=O)c3ccc(C(=O)c4ccc5c(c4)C(=O)C(C(=O)[C@H]4CCN(C(=O)OC(C)(C)C)C4)C5=O)cc3C2=O)C1 (stereo partly drawn) [Example 373, tert-butyl (3S)-3-(5-{2-[(3S)-1-[(tert-butoxy)carbonyl]pyrrolidine-3-carbonyl]-1,3-dioxo-2,3-dihydro-1H-indene-5-carbonyl}-1,3-dioxo-2,3-dihydro-1H-indene-2-carbonyl)pyrrolidine-1-carboxylate] | 5 |  | 3 |
| CC(C)(C)OC(=O)N1CC[C@H](C(=O)C2C(=O)c3ccc(S(=O)(=O)c4ccc5c(c4)C(=O)C(C(=O)[C@H]4CCN(C(=O)OC(C)(C)C)C4)C5=O)cc3C2=O)C1 (stereo partly drawn) [Example 374, tert-butyl (3S)-3-[5-({2-[(3S)-1-[(tert-butoxy)carbonyl]pyrrolidine-3-carbonyl]-1,3-dioxo-2,3-dihydro-1H-inden-5-yl}sulfonyl)-1,3-dioxo-2,3-dihydro-1H-indene-2-carbonyl]pyrrolidine-1-carboxylate] | 22 |  | 49 |
| CC(C)(C)OC(=O)N1CC[C@@H](C(=O)C2C(=O)c3ccc(C(=O)c4ccc5c(c4)C(=O)C(C(=O)[C@@H]4CCN(C(=O)OC(C)(C)C)C4)C5=O)cc3C2=O)C1 (stereo partly drawn) [Example 375, tert-butyl (3R)-3-(5-{2-[(3R)-1-[(tert-butoxy)carbonyl]pyrrolidine-3-carbonyl]-1,3-dioxo-2,3-dihydro-1H-indene-5-carbonyl}-1,3-dioxo-2,3-dihydro-1H-indene-2-carbonyl)pyrrolidine-1-carboxylate] | 14 |  | 32 |
| CC(C)(C)OC(=O)N1CC[C@@H](C(=O)C2C(=O)c3ccc(S(=O)(=O)c4ccc5c(c4)C(=O)C(C(=O)[C@@H]4CCN(C(=O)OC(C)(C)C)C4)C5=O)cc3C2=O)C1 (stereo partly drawn) [Example 376, tert-butyl (3R)-3-[5-({2-[(3R)-1-[(tert-butoxy)carbonyl]pyrrolidine-3-carbonyl]-1,3-dioxo-2,3-dihydro-1H-inden-5-yl}sulfonyl)-1,3-dioxo-2,3-dihydro-1H-indene-2-carbonyl]pyrrolidine-1-carboxylate] | 22 |  | 62 |
| CC(C)OCC(=O)C1C(=O)c2ccc(Oc3ccc4c(c3)C(=O)C(C(=O)COC(C)C)C4=O)cc2C1=O (centres unmarked) [Example 378, 5-({1,3-dioxo-2-[2-(propan-2-yloxy)acetyl]-2,3-dihydro-1H-inden-5-yl}oxy)-2-[2-(propan-2-yloxy)acetyl]-2,3-dihydro-1H-indene-1,3-dione] | 39 |  | 69 |
| CC(C)OC/C(O)=C1/C(=O)c2ccc(C(=O)c3ccc4c(c3)C(=O)/C(=C(/O)COC(C)C)C4=O)cc2C1=O [Example 380, 5-{1,3-dioxo-2-[2-(propan-2-yloxy)acetyl]-2,3-dihydro-1H-indene-5-carbonyl}-2-[2-(propan-2-yloxy)acetyl]-2,3-dihydro-1H-indene-1,3-dione] | 17 |  | 30 |
| COCCOCCC(=O)C1C(=O)c2ccc(C(=O)c3ccc4c(c3)C(=O)C(C(=O)CCOCCOC)C4=O)cc2C1=O (centres unmarked) [Example 382, 2-[3-(2-methoxyethoxy)propanoyl]-5-{2-[3-(2-methoxyethoxy)propanoyl]-1,3-dioxo-2,3-dihydro-1H-indene-5-carbonyl}-2,3-dihydro-1H-indene-1,3-dione] | 20 | 290 | 70 |
| COCCOCCC(=O)C1C(=O)c2ccc(Oc3ccc4c(c3)C(=O)C(C(=O)CCOCCOC)C4=O)cc2C1=O (centres unmarked) [Example 383, 2-[3-(2-methoxyethoxy)propanoyl]-5-({2-[3-(2-methoxyethoxy)propanoyl]-1,3-dioxo-2,3-dihydro-1H-inden-5-yl}oxy)-2,3-dihydro-1H-indene-1,3-dione] | 20 |  | 45 |
| CC(C)(C)OC(=O)NCCCC(=O)C1C(=O)c2ccc(Oc3ccc4c(c3)C(=O)C(C(=O)CCCNC(=O)OC(C)(C)C)C4=O)cc2C1=O (centres unmarked) [Example 385, tert-butyl N-[4-(5-{[2-(4-{[(tert-butoxy)carbonyl]amino}butanoyl)-1,3-dioxo-2,3-dihydro-1H-inden-5-yl]oxy}-1,3-dioxo-2,3-dihydro-1H-inden-2-yl)-4-oxobutyl]carbamate] | 29 |  | 59 |
| CC(C)(C)OC(=O)NCCCC(=O)C1C(=O)c2ccc(C(=O)c3ccc4c(c3)C(=O)C(C(=O)CCCNC(=O)OC(C)(C)C)C4=O)cc2C1=O (centres unmarked) [Example 386, tert-butyl N-(4-{5-[2-(4-{[(tert-butoxy)carbonyl]amino}butanoyl)-1,3-dioxo-2,3-dihydro-1H-indene-5-carbonyl]-1,3-dioxo-2,3-dihydro-1H-inden-2-yl}-4-oxobutyl)carbamate] | 13 |  | 34 |
| CC(C)(C)OC(=O)NCCCC(=O)C1C(=O)c2ccc(S(=O)(=O)c3ccc4c(c3)C(=O)C(C(=O)CCCNC(=O)OC(C)(C)C)C4=O)cc2C1=O (centres unmarked) [Example 387, tert-butyl N-[4-(5-{[2-(4-{[(tert-butoxy)carbonyl]amino}butanoyl)-1,3-dioxo-2,3-dihydro-1H-inden-5-yl]sulfonyl}-1,3-dioxo-2,3-dihydro-1H-inden-2-yl)-4-oxobutyl]carbamate] | 16 |  | 52 |
| COCCOCCOCCNC(=O)C1C(=O)c2ccc(C(=O)c3ccc4c(c3)C(=O)C(C(=O)NCCOCCOCCOC)C4=O)cc2C1=O (centres unmarked) [Example 388, N-{2-[2-(2-methoxyethoxy)ethoxy]ethyl}-5-[2-({2-[2-(2-methoxyethoxy)ethoxy]ethyl}carbamoyl)-1,3-dioxo-2,3-dihydro-1H-indene-5-carbonyl]-1,3-dioxo-2,3-dihydro-1H-indene-2-carboxamide] | 23 |  | 31 |

Now from value to compound, other results behind:

| inhibition at 1 µM [%] | IC50 [nM] | SMILES | inhibition at 3 µM [%] |
| --- | --- | --- | --- |
| 3 |  | O=C1c2ccc(Oc3ccc4c(c3)C(=O)C(C(=O)C3CCCS3(=O)=O)C4=O)cc2C(=O)C1C(=O)C1CCCS1(=O)=O (centres unmarked) [Example 370, 2-(5-{[2-(1,1-dioxo-1λ^6-thiolane-2-carbonyl)-1,3-dioxo-2,3-dihydro-1H-inden-5-yl]oxy}-1,3-dioxo-2,3-dihydro-1H-indene-2-carbonyl)-1λ^6-thiolane-1,1-dione] | 6 |
| 7 |  | O=C(c1ccc2c(c1)C(=O)C(C(=O)C1CCCS1(=O)=O)C2=O)c1ccc2c(c1)C(=O)C(C(=O)C1CCCS1(=O)=O)C2=O (centres unmarked) [Example 371, 2-{5-[2-(1,1-dioxo-1λ^6-thiolane-2-carbonyl)-1,3-dioxo-2,3-dihydro-1H-indene-5-carbonyl]-1,3-dioxo-2,3-dihydro-1H-indene-2-carbonyl}-1λ^6-thiolane-1,1-dione] | 11 |
| 26 |  | COCC(=O)C1C(=O)c2ccc(S(=O)(=O)c3ccc4c(c3)C(=O)C(C(=O)COC)C4=O)cc2C1=O (centres unmarked) [Example 377, 2-(2-methoxyacetyl)-5-{[2-(2-methoxyacetyl)-1,3-dioxo-2,3-dihydro-1H-inden-5-yl]sulfonyl}-2,3-dihydro-1H-indene-1,3-dione] | 41 |
| 43 | 660 | CC(C)OCC(=O)C1C(=O)c2ccc(S(=O)(=O)c3ccc4c(c3)C(=O)C(C(=O)COC(C)C)C4=O)cc2C1=O (centres unmarked) [Example 379, 5-({1,3-dioxo-2-[2-(propan-2-yloxy)acetyl]-2,3-dihydro-1H-inden-5-yl}sulfonyl)-2-[2-(propan-2-yloxy)acetyl]-2,3-dihydro-1H-indene-1,3-dione] | 68 |
| 7 |  | COCCOCCNC(=O)C1C(=O)c2ccc(C#Cc3ccc4c(c3)C(=O)C(C(=O)NCCOCCOC)C4=O)cc2C1=O (centres unmarked) [Example 381, N-[2-(2-methoxyethoxy)ethyl]-5-[2-(2-{[2-(2-methoxyethoxy)ethyl]carbamoyl}-1,3-dioxo-2,3-dihydro-1H-inden-5-yl)ethynyl]-1,3-dioxo-2,3-dihydro-1H-indene-2-carboxamide] | 19 |
| 4 |  | COCCOCCOCCNC(=O)C1C(=O)c2ccc(Oc3ccc4c(c3)C(=O)C(C(=O)NCCOCCOCCOC)C4=O)cc2C1=O (centres unmarked) [Example 384, N-{2-[2-(2-methoxyethoxy)ethoxy]ethyl}-5-{[2-({2-[2-(2-methoxyethoxy)ethoxy]ethyl}carbamoyl)-1,3-dioxo-2,3-dihydro-1H-inden-5-yl]oxy}-1,3-dioxo-2,3-dihydro-1H-indene-2-carboxamide] | 9 |
| 31 |  | O=C(NC1CCC1)C1C(=O)c2ccc(Oc3ccc4c(c3)C(=O)C(C(=O)NC3CCC3)C4=O)cc2C1=O (centres unmarked) [Example 389, N-cyclobutyl-5-{[2-(cyclobutylcarbamoyl)-1,3-dioxo-2,3-dihydro-1H-inden-5-yl]oxy}-1,3-dioxo-2,3-dihydro-1H-indene-2-carboxamide] | 80 |

Source: US20250281424A1 (New York Blood Center, Inc, priority 2020, published 2025)
